US20230072683A1, “PYRIDO-PYRIMIDIN DERIVATIVES AND PHARMACEUTICAL COMPOSITION, FOR USE IN PREVENTING OR TREATING PI3 KINASE RELATED DISEASES, COMPRISING SAME AS ACTIVE INGREDIENT” (BORYUNG PHARMACEUTICAL CO., LTD, priority 2019, published 2023)

Experiments:
DNA-PK(h) = DNA-PK(h) (Homo sapiens, UniProt P78527); assay: Evaluation of inhibitory activity against DNA-PK (HTRF kinase assay, GST-cMyc-p53 substrate); assay type: biochemical; conditions: for inhibition at 0.01 µM: compound concentration 0.01 μM, read-out: EXP_VALUE(% Inhibition) DNA-PK(h) 0.01 μM; for inhibition at 0.1 µM: compound concentration 0.1 μM, read-out: EXP_VALUE(% Inhibition) DNA-PK(h) 0.1 μM
Outline: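 p53 Ser15 phosphorylation by human DNA-PK was measured by time-resolved FRET ratio (665/620 nm ×10000) using Eu-labelled anti-phospho-Ser15 and d2 anti-GST antibodies. Substrate GST-cMyc-p53 at 50 μM; Mg/ATP-initiated, 30 min at room temperature, EDTA stop.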

[1] = target: PI3K-δ (PI3K(p1108/p857) (h)) (Homo sapiens, UniProt O00329); assay: Evaluation of inhibitory activity against PI3K-δ (HTRF kinase assay); assay type: biochemical; conditions: for inhibition at 0.01 µM: compound concentration 0.01 μM, read-out: EXP_VALUE(% Inhibition) PI3K-δ 0.01 μM; for inhibition at 0.1 µM: compound concentration 0.1 μM, read-out: EXP_VALUE(% Inhibition) PI3K-δ 0.1 μM
PI3K-δ (PI3K(p1108/p857) (h)), sequence (O00329 whole entry, the tested form may be a part): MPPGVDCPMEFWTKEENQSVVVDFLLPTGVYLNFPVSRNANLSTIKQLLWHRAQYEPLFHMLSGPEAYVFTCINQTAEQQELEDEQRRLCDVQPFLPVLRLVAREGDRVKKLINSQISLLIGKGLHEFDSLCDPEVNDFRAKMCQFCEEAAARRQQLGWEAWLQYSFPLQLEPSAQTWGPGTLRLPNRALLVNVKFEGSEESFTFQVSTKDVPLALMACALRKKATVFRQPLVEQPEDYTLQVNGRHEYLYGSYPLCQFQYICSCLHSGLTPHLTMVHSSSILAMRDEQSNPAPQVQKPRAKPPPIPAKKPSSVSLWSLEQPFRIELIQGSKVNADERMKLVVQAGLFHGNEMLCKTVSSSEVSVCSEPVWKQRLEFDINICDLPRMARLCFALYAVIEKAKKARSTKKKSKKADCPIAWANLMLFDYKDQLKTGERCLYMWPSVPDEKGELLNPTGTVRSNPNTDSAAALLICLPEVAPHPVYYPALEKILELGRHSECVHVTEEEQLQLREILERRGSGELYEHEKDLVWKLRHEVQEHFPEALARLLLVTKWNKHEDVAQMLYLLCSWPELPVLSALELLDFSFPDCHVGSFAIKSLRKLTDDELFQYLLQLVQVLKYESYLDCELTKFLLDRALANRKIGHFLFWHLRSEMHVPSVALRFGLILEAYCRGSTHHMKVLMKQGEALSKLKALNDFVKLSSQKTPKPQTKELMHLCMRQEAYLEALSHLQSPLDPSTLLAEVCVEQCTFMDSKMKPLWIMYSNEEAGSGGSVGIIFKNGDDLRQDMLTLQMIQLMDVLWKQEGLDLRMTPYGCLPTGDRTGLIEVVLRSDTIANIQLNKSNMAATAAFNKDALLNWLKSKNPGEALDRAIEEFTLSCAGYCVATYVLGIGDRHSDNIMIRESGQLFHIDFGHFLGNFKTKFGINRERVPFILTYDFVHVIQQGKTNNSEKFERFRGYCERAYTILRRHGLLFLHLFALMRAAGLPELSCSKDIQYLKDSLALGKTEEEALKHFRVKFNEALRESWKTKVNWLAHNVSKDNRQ
PI3K-δ (PI3K(p1108/p857) (h)), sequence (P27986 whole entry partner, the tested form may be a part): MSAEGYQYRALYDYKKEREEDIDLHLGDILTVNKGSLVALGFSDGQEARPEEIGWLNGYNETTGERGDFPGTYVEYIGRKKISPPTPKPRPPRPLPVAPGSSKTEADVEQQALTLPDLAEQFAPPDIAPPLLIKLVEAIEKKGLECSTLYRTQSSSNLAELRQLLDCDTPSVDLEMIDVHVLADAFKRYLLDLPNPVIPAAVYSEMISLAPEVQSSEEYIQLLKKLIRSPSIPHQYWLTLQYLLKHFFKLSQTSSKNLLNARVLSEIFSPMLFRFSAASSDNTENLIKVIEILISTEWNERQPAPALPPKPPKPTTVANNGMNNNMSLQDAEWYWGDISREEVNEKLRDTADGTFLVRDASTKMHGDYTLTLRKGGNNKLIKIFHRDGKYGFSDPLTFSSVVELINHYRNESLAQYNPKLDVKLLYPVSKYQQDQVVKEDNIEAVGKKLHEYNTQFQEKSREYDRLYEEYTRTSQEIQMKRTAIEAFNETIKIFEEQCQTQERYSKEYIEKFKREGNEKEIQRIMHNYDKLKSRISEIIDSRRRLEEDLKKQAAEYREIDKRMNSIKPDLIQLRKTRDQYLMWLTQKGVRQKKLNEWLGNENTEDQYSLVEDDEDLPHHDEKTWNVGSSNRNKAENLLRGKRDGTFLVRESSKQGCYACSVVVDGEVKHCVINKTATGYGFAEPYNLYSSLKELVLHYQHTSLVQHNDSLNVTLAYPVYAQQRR
Outline: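 HTRF read-out (665/620 nm ratio ×10000) used Eu-labelled anti-GST, GST-tagged GRP1 PH domain and streptavidin-allophycocyanin after EDTA/PIP3 stop.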

| Compound | inhibition at 0.01 µM (DNA-PK(h)) | inhibition at 0.1 µM (DNA-PK(h)) | inhibition at 0.01 µM [1] | inhibition at 0.1 µM [1] |
| --- | --- | --- | --- | --- |
| Cc1cc(-c2cccc3c(Cl)c([C@H](C)Nc4ncnc5[nH]ccc(=O)c45)n(-c4ccccc4)c(=O)c23)cc(C)c1O [Example 126, (S)-4-((1-(4-chloro-8-(4-hydroxy-3,5-dimethylphenyl)-1-oxo-2-phenyl-1,2-dihydroisoquinolin-3-yl)ethyl)amino)pyrido[2,3-d]pyrimidin-5(8H)-one] | 70% | 96% | 74% | 94% |
| Cc1ccc(F)cc1-c1cccc2c(Cl)c([C@H](C)Nc3ncnc4[nH]ccc(=O)c34)n(-c3ccccc3)c(=O)c12 [Example 127, (S)-4-((1-(4-chloro-8-(5-fluoro-2-methylphenyl)-1-oxo-2-phenyl-1,2-dihydroisoquinolin-3-yl)ethyl)amino)pyrido[2,3-d]pyrimidin-5(8H)-one] | 38% | 81% | 89% | 92% |
| Cc1cc(-c2cccc3c(Cl)c([C@H](C)Nc4ncnc5[nH]ccc(=O)c45)n(-c4ccccc4)c(=O)c23)ccc1F [Example 128, (S)-4-((1-(4-chloro-8-(4-fluoro-3-methylphenyl)-1-oxo-2-phenyl-1,2-dihydroisoquinolin-3-yl)ethyl)amino)pyrido[2,3-d]pyrimidin-5(8H)-one] | 59% | 97% | 101% | 105% |
| C[C@H](Nc1ncnc2[nH]ccc(=O)c12)c1c(Cl)c2cccc(-c3cccc(F)c3F)c2c(=O)n1-c1ccccc1 [Example 129, (S)-4-((1-(4-chloro-8-(2,3-difluorophenyl)-1-oxo-2-phenyl-1,2-dihydroisoquinolin-3-yl)ethyl)amino)pyrido[2,3-d]pyrimidin-5(8H)-one] | 56% | 91% | 75% | 67% |
| C[C@H](Nc1ncnc2[nH]ccc(=O)c12)c1c(Cl)c2cccc(-c3ccc(C4CCN(C)CC4)cc3)c2c(=O)n1-c1ccccc1 [Example 130, (S)-4-((1-(4-chloro-8-(4-(1-methylpiperidin-4-yl)phenyl)-1-oxo-2-phenyl-1,2-dihydroisoquinolin-3-yl)ethyl)amino)pyrido[2,3-d]pyrimidin-5(8H)-one] | 98% | 102% | 85% | 89% |
| Cc1cc(F)ccc1-c1cccc2c(Cl)c([C@H](C)Nc3ncnc4[nH]ccc(=O)c34)n(-c3ccccc3)c(=O)c12 [Example 131, (S)-4-((1-(4-chloro-8-(4-fluoro-2-methylphenyl)-1-oxo-2-phenyl-1,2-dihydroisoquinolin-3-yl)ethyl)amino)pyrido[2,3-d]pyrimidin-5(8H)-one] | 54% | 92% | 81% | 91% |
| C[C@H](Nc1ncnc2[nH]ccc(=O)c12)c1c(Cl)c2cccc(-c3cnc4c(c3)OCCO4)c2c(=O)n1-c1ccccc1 [Example 132, (S)-4-((1-(4-chloro-8-(2,3-dihydro-[1,4]dioxino[2,3-b]pyridin-7-yl)-1-oxo-2-phenyl-1,2-dihydroisoquinolin-3-yl)ethyl)amino)pyrido[2,3-d]pyrimidin-5(8H)-one] | 89% | 102% | 91% | 94% |
| COc1ccc(-c2cccc3c(Cl)c([C@H](C)Nc4ncnc5[nH]ccc(=O)c45)n(-c4ccccc4)c(=O)c23)cn1 [Example 133, (S)-4-((1-(4-chloro-8-(6-methoxypyridin-3-yl)-1-oxo-2-phenyl-1,2-dihydroisoquinolin-3-yl)ethyl)amino)pyrido[2,3-d]pyrimidin-5(8H)-one] | 79% | 99% | 78% | 88% |
| C[C@H](Nc1ncnc2[nH]ccc(=O)c12)c1c(Cl)c2cccc(-c3ccncc3)c2c(=O)n1-c1ccccc1 [Example 134, (S)-4-((1-(4-chloro-1-oxo-2-phenyl-8-(pyridin-4-yl)-1,2-dihydroisoquinolin-3-yl)ethyl)amino)pyrido[2,3-d]pyrimidin-5(8H)-one] | 83% | 97% | 85% | 92% |
| Cc1nc2cc(-c3cccc4c(Cl)c([C@H](C)Nc5ncnc6[nH]ccc(=O)c56)n(-c5ccccc5)c(=O)c34)ccc2[nH]1 [Example 135, (S)-4-((1-(4-chloro-8-(2-methyl-1H-benzo[d]imidazol-5-yl)-1-oxo-2-phenyl-1,2-dihydroisoquinolin-3-yl)ethyl)amino)pyrido[2,3-d]pyrimidin-5(8H)-one] | 85% | 100% | 78% | 97% |
| Cc1ncc(-c2cccc3c(Cl)c([C@H](C)Nc4ncnc5[nH]ccc(=O)c45)n(-c4ccccc4)c(=O)c23)cn1 [Example 136, (S)-4-((1-(4-chloro-8-(2-methylpyrimidin-5-yl)-1-oxo-2-phenyl-1,2-dihydroisoquinolin-3-yl)ethyl)amino)pyrido[2,3-d]pyrimidin-5(8H)-one] | 75% | 97% | 83% | 93% |
| C[C@H](Nc1ncnc2[nH]ccc(=O)c12)c1c(Cl)c2cccc(-c3ccc4nccnc4c3)c2c(=O)n1-c1ccccc1 [Example 137, (S)-4-((1-(4-chloro-1-oxo-2-phenyl-8-(quinoxalin-6-yl)-1,2-dihydroisoquinolin-3-yl)ethyl)amino)pyrido[2,3-d]pyrimidin-5(8H)-one] | 87% | 100% | 84% | 92% |
| C[C@H](Nc1ncnc2[nH]ccc(=O)c12)c1c(Cl)c2cccc(-c3ccc(N4CCN(C(=O)OC(C)(C)C)CC4)cc3)c2c(=O)n1-c1ccccc1 [Example 138, tert-butyl(S)-4-(4-(4-chloro-1-oxo-3-(1-((5-oxo-5,8-dihydropyrido[2,3-d]pyrimidin-4-yl)amino)ethyl)-2-phenyl-1,2-dihydroisoquinolin-8-yl)phenyl)piperazin-1-carboxylate] | 32% | 75% | 33% | 81% |
| C[C@H](Nc1ncnc2[nH]ccc(=O)c12)c1c(Cl)c2cccc(-c3ccc(C(=O)N(C)C)cc3)c2c(=O)n1-c1ccccc1 [Example 139, (S)-4-(4-chloro-1-oxo-3-(1-((5-oxo-5,8-dihydropyrido[2,3-d]pyrimidin-4-yl)amino)ethyl)-2-phenyl-1,2-dihydroisoquinolin-8-yl)-N, N-dimethylbenzamide] | 74% | 96% | 51% | 94% |
| C[C@H](Nc1ncnc2[nH]ccc(=O)c12)c1c(Cl)c2cccc(-c3cc(Cl)ccc3F)c2c(=O)n1-c1ccccc1 [Example 140, (S)-4-((1-(4-chloro-8-(5-chloro-2-fluorophenyl)-1-oxo-2-phenyl-1,2-dihydroisoquinolin-3-yl)ethyl)amino)pyrido[2,3-d]pyrimidin-5(8H)-one] | 38% | 84% | 42% | 87% |
| C[C@H](Nc1ncnc2[nH]ccc(=O)c12)c1c(Cl)c2cccc(-c3ccc(C4CC4)cc3)c2c(=O)n1-c1ccccc1 [Example 141, (S)-4-((1-(4-chloro-8-(4-cyclopropylphenyl)-1-oxo-2-phenyl-1,2-dihydroisoquinolin-3-yl)ethyl)amino)pyrido[2,3-d]pyrimidin-5(8H)-one] | 31% | 74% | 39% | 79% |
| C=Cc1cccc2c(Cl)c([C@H](C)Nc3ncnc4[nH]ccc(=O)c34)n(-c3ccccc3)c(=O)c12 [Example 142, (S)-4-((1-(4-chloro-1-oxo-2-phenyl-8-vinyl-1,2-dihydroisoquinolin-3-yl)ethyl)amino)pyrido[2,3-d]pyrimidin-5(8H)-one] | 50% | 87% | 67% | 97% |
| CSc1ccc(-c2cccc3c(Cl)c([C@H](C)Nc4ncnc5[nH]ccc(=O)c45)n(-c4ccccc4)c(=O)c23)cc1 [Example 143, (S)-4-((1-(4-chloro-8-(4-(methylthio)phenyl)-1-oxo-2-phenyl-1,2-dihydroisoquinolin-3-yl)ethyl)amino)pyrido[2,3-d]pyrimidin-5(8H)-one] | 25% | 80% | 48% | 94% |
| C[C@H](Nc1ncnc2[nH]ccc(=O)c12)c1c(Cl)c2cccc(-c3ccc(SC(C)(C)C)cc3)c2c(=O)n1-c1ccccc1 [Example 144, (S)-4-((1-(8-(4-(tert-butylthio)phenyl)-4-chloro-1-oxo-2-phenyl-1,2-dihydroisoquinolin-3-yl)ethyl)amino)pyrido[2,3-d]pyrimidin-5(8H)-one] | 4% | 48% | 17% | 72% |
| C[C@H](Nc1ncnc2[nH]ccc(=O)c12)c1c(Cl)c2cccc(-c3ccc(C(=O)N4CCOCC4)cc3)c2c(=O)n1-c1ccccc1 [Example 145, (S)-4-((1-(4-chloro-8-(4-(morpholin-4-carbonyl)phenyl)-1-oxo-2-phenyl-1,2-dihydroisoquinolin-3-yl)ethyl)amino)pyrido[2,3-d]pyrimidin-5(8H)-one] | 93% | – | 88% | – |
